Measurements: patent US20070060607A1, “4-amino-thieno[3,2-c] pyridine-7-carboxylic acid derivatives” (priority 2005, published 2007)

Each compound was assayed against T1, c-Raf (Homo sapiens, UniProt P04049) (assay: In vitro kinase assay: c-Raf HTRF assay with 6H-MEK as substrate). Settings: 6H-MEK substrate, dose response.
T1 construct: made in house; host or cells: baculovirus Hi5 insect cells, co-expressed with v-src-FLAG
Assay type: biochemical
Experimental: In vitro enzyme activity was determined with c-Raf using a HTRF assay with 6H-MEK as substrate (Dose Response).
The assay utilizes 6H-MEK as the substrate. Upon c-Raf phosphorylation, phosphorylated 6H-MEK is detected with rabbit anti-phospho-MEK1/2, Eu-labeled anti-rabbit, and APC-labeled anti-6H antibodies.
c-Raf enzyme was cloned human c-Raf with EE-tag and was phosphorylated (co-expressed with v-src-FLAG in baculovirus Hi5 cells), 0.2 mg/mL (2.74 μM assuming a molecular weight of 73 kD) and stored at −15° C. Wild-type full-length 6H-MEK was used as substrate, 4.94 mg/mL (154.4 μM assuming a MW of 32 kD) and stored at −15° C.
The following antibodies were used in the detection step: Rabbit α-P-(Ser 217/221)-MEK-1/2 Ab (from Cell Signaling, Cat. # 9121S, Lot 4); Eu-α-rabbit IgG (from Wallac, Cat. # AD0083, Lot 107557, labeling date Jun. 21, 2002, 8 Eu/protein, 580 μg/mL, 3.63 μM); α-6H-SureLight-APC (from Martek, Cat. #AD0059H, Lot E011ABO1, 3.15 μM).
Assays were read with Envision from PerkinElmer, HTRF reading mode with 412 mirrors.
Assays were performed with Costar 384 all-black plates, 120 μL (Cat. # 3710).
Test compounds were dispensed in Weidman 384 polypropylene plates (REMP).
Assay Procedure: • Prepare Kinase Assay Buffer (KAB): 50 mM HEPES (HyClone) pH7, 10 mM MgCl2, 1 mM DTT, 0.1 mM […], and 0.2 mg/mL BSA. • Prepare 6H-MEK (150 nM) in KAB. Add 40 μL/well to a Weidman plate. • Prepare ATP (66 μM) in KAB. • Prepare c-Raf (60 nM) in KAB. Add 25 μL/well to a Weidman plate. • Dilute compounds to 2.4 mM in DMSO. Perform 10-point 3× dilution in DMSO. • Withdraw 2.5 ul/well of DMSO solution and add to 27.5 μL/well ATP solution in (3). • Add 12 μL/well 6H-MEK to the assay plate on the Cybiwell, followed by 6 μL/well of solution in (5) and 6 μL/well of solution in (4) for a DMSO concentration of 2.1% during MEK phosphorylation. • Incubate at 37° C. for 30 minutes. • Prepare rabbit α-P-(Ser 217/221)-MEK-1/2 Ab (1:225 from stock) in AB1: 50 mM HEPES pH7, 0.2 mg/mL BSA, and 53 mM EDTA. • To stop reaction, add 6 μL/well of solution from (8) to the assay plate and incubate at 37° C. for 30 minutes. • Prepare Eu-α-rabbit IgG (9 nM) and α-6H-SureLight-APC (120 nM) in AB2: 50 mM HEPES pH7 and 0.2 mg/mL BSA. • Add 6 μL/well of solution from (10) to the assay plate. • For determining the spectrum cross talk factor, prepare 2 samples following steps (6) to (9). For the blank sample, add 6 μL/well of AB2. For the cross talk factor sample, add 6 μL/well of Eu-anti rabbit IgG (9 nM). • Incubate at 37° C. for 1 hour.
Read HTRF signals at 615 nm and 665 nm on the Envision. Normalize HTRF signals after spectrum cross-talk correction.

T1 sequence (P04049 whole entry): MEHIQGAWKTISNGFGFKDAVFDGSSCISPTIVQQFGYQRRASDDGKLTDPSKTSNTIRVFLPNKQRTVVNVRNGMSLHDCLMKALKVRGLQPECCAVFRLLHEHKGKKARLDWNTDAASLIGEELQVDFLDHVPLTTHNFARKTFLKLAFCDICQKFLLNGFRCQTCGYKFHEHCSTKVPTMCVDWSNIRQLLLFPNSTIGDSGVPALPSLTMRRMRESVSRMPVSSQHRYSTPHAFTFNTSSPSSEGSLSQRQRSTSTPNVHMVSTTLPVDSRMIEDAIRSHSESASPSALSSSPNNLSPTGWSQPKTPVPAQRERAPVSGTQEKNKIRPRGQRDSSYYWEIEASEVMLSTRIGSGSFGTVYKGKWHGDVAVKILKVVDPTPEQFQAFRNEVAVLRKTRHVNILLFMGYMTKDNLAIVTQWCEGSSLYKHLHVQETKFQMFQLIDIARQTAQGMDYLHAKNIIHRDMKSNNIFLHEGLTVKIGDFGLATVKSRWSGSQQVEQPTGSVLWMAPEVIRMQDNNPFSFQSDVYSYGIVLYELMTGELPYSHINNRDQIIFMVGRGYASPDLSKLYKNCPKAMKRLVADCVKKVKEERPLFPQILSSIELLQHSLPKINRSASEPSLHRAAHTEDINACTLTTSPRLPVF

Compared with `CCOC(=O)c1cnc(N)c2c(COc3cccc(OCc4ccc(OC)c(C(F)(F)F)c4)c3)csc12` [Example 18, 4-Amino-3-[3-(4-methoxy-3-trifluoromethyl-benzyloxy)-phenoxymethyl]-thieno[3,2-c]pyridine-7-carboxylic acid ethyl ester], `CCOC(=O)c1cnc(N)c2c(COc3cccc(OCc4cccc(OC)c4)c3)csc12` [Example 14, 4-Amino-3-[3-(3-methoxy-benzyloxy)-phenoxymethyl]-thieno[3,2-c]pyridine-7-carboxylic acid ethyl ester] is 6.2-fold higher in IC50: 324 nM for the first, 2020 nM for the second. The first is the more potent here.

Compared with `Nc1ncc(C(=O)NCCO)c2scc(COc3cccc(OCc4cccc(Cl)c4)c3)c12` [Example 7, 4-Amino-3-[3-(3-chloro-benzyloxy)-phenoxymethyl]-thieno[3,2-c]pyridine-7-carboxylic acid (2-hydroxy-ethyl)-amide], `CCOC(=O)c1cnc(N)c2c(COc3cccc(OCc4ccccc4)c3)csc12` [Example 2, 4-Amino-3-(3-benzyloxy-phenoxymethyl)-thieno[3,2-c]pyridine-7-carboxylic acid ethyl ester] is 38-fold higher in IC50: 22 nM for the first, 836 nM for the second.
